In ChEMBL document CHEMBL2390945, “Synthesis and characterization of 123I-CMICE-013: a potential SPECT myocardial perfusion imaging agent” (Bioorg Med Chem, 2013):

Assays:
Blood [1] = assay: Biodistribution in Sprague-Dawley rat blood at 24 hrs by gamma counting analysis; format: ADME, organism-based; conditions: in vivo
Heart [2] = assay: Biodistribution in Sprague-Dawley rat heart at 24 hrs by gamma counting analysis; format: ADME, organism-based; conditions: in vivo
Muscle tissue = assay: Biodistribution in Sprague-Dawley rat muscle at 24 hrs by gamma counting analysis; format: ADME, organism-based; conditions: in vivo
Brain [3] = assay: Biodistribution in Sprague-Dawley rat brain at 24 hrs by gamma counting analysis; format: ADME, organism-based; conditions: in vivo
Liver [4] = assay: Biodistribution in Sprague-Dawley rat liver at 24 hrs by gamma counting analysis; format: ADME, organism-based; conditions: in vivo
Kidney = assay: Biodistribution in Sprague-Dawley rat kidney at 24 hrs by gamma counting analysis; format: ADME, organism-based; conditions: in vivo
Lung [5] = assay: Biodistribution in Sprague-Dawley rat lung at 24 hrs by gamma counting analysis; format: ADME, organism-based; conditions: in vivo
Spleen = assay: Biodistribution in Sprague-Dawley rat spleen at 24 hrs by gamma counting analysis; format: ADME, organism-based; conditions: in vivo
Thyroid gland [6] = assay: Biodistribution in Sprague-Dawley rat thyroid assessed per organ at 24 hrs by gamma counting analysis; format: ADME, organism-based; conditions: in vivo
Thyroid gland [7] = assay: Biodistribution in Sprague-Dawley rat thyroid assessed per organ at 2 hrs by gamma counting analysis; format: ADME, organism-based; conditions: in vivo
Brain [8] = assay: Biodistribution in Sprague-Dawley rat brain at 2 hrs by gamma counting analysis; format: ADME, organism-based; conditions: in vivo
Lung [9] = assay: Biodistribution in Sprague-Dawley rat lung at 2 hrs by gamma counting analysis; format: ADME, organism-based; conditions: in vivo
[10] = Ratio of drug level in heart to blood in Sprague-Dawley rat measured at 2 hrs; format: ADME
Blood [11] = assay: Biodistribution in Sprague-Dawley rat blood at 2 hrs by gamma counting analysis; format: ADME, organism-based; conditions: in vivo
Liver [12] = assay: Biodistribution in Sprague-Dawley rat liver at 2 hrs by gamma counting analysis; format: ADME, organism-based; conditions: in vivo
Heart [13] = assay: Biodistribution in Sprague-Dawley rat heart at 2 hrs by gamma counting analysis; format: ADME, organism-based; conditions: in vivo
[14] = Ratio of drug level in heart to lung in Sprague-Dawley rat measured at 2 hrs; conditions: in vivo
[15] = Ratio of drug level in heart to liver in Sprague-Dawley rat measured at 2 hrs; conditions: in vivo

Drug uptake (Blood [1]): 0.06 % ID/g | Drug uptake (Heart [2]): Active | Drug uptake (Muscle tissue): Active | Drug uptake (Brain [3]): Active | Drug uptake (Liver [4]): Active | Drug uptake (Kidney): Active | Drug uptake (Lung [5]): Active | Drug uptake (Spleen): Active | Drug uptake (Thyroid gland [6]): 3.78 %ID | Drug uptake (Thyroid gland [7]): 0.34 %ID | Drug uptake (Brain [8]): 0.34 %Idose/kg | Drug uptake (Lung [9]): 0.33 %Idose/kg | Kp at 2 h [10]: 22.4 | Drug uptake (Blood [11]): 0.14 %Idose/kg | Drug uptake (Liver [12]): 1.17 %Idose/kg | Drug uptake (Heart [13]): 2.96 %Idose/kg | Ratio [14]: 9.32 | Ratio [15]: 2.57
Structure (SMILES): COc1cc2c(cc1OC)[C@@H]1C(=O)c3ccc4c(c3O[C@@H]1CO2)C[C@H](/C(C)=C\[125I])O4
